Experimental data as given in article PMC4577729, “7-(Pyrazol-4-yl)-3H-imidazo[4,5-b]pyridine-based derivatives for kinase inhibition: Co-crystallisation studies with Aurora-A reveal distinct differences in the orientation of the pyrazole N1-substituent” (Bioorganic & Medicinal Chemistry Letters, 2015).
Values joined by “and” are separate entries in the source; they are usually repeats but may differ in a detail not shown here. Identical values can stand only once.

Key:
Aurora A = biological target: T1, Aurora A (Homo sapiens, UniProt O14965); assay: Aurora-A microfluidic kinase assay; assay type: biochemical; details: for IC50: biochemical, mean of two determinations or mean ±SD for n > 2; for fold more potent on Aurora-A relative to Aurora-B: ratio of biochemical IC50s
T1 sequence (O14965 1-403): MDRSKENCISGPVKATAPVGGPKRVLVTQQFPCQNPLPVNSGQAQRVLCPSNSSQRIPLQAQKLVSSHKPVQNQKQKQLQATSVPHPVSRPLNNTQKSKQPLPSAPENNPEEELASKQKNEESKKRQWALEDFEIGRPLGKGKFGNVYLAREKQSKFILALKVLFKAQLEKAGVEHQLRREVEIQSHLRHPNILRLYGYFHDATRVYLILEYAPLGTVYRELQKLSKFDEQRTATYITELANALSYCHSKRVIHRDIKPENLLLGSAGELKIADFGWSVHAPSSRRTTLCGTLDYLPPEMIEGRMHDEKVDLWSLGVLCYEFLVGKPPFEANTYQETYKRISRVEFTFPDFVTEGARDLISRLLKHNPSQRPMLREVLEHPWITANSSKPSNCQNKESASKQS
Text: (§1) As part of our medicinal chemistry programme to discover selective inhibitors of Aurora-A,[12] we introduced the 1-benzyl-1H-pyrazol-4-yl moiety at C7 of the imidazo[4,5-b]pyridine scaffold to provide 7a (Table 1). We previously reported 1,3-dimethyl-1H-pyrazol-4-yl as a preferred substituent at the C2 position of the imidazo[4,5-b]pyridine scaffold[11] and this moiety was therefore incorporated into the design of 7a and analogues presented in this study. […] This in vitro profile prompted us to investigate this C7-pyrazole substituted imidazo[4,5-b]pyridine subseries in more detail. Firstly, we attempted to increase biochemical potency against Aurora-A, and also to improve microsomal stability.
(§2) [17] Aurora-A and Aurora-B IC50 values were determined by using a microfluidic assay which monitors the separation of a phosphorylated product from its substrate, as described in Ref. [12].

[1] = Mouse liver microsomal stability; assay type: in vitro ADME; details: percentage of compound metabolised after a 30 min incubation, mouse liver microsomes
Experimental: (§3) [18] MLM and HLM microsomal stabilities were determined as described in Ref. [12].

[2] = Protein binding in microsomal incubations (MLM); assay type: in vitro ADME, mouse
Experimental: (§4) For a better understanding of the microsomal stability data, the protein binding for 7a, 7d and 7e in microsomal incubations was measured. The percentage of 7a unbound in MLM and HLM was determined as 6.71 and 4.89, respectively. Compounds 7d and 7e were more highly bound: for 7d the percentage unbound was 0.50 in both MLM and HLM and for 7e was 0.16 and 0.10, respectively. […] The potent cell-based activity prompted us to investigate kinome selectivity profiles for this class of compound by screening 7a and 7d in a 102-kinase panel at a concentration of 1 μM.[20] […] The Gini coefficient for compound 3 was reported as 0.719,[12] and the corresponding value for compound 1 is 0.560. To understand the potential for further improvement, we obtained the crystal structure of 7a bound to Aurora-A[22] (Fig. 3, Table S3, Supplementary data). […] Similar to crystal structures of previous compounds 1, 15 and 16 (Figs. 1 and 2; compounds 51 and 40c in Ref. [10], and compound 21a in Ref. [11], respectively) the N-benzyl substituent on the C7-pyrazole is oriented towards the P-loop, making Van der Waals contacts with Val147 and Gly142 (Fig. 3).

[3] = Human liver microsomal stability; assay type: in vitro ADME; details: percentage of compound metabolised after a 30 min incubation, human liver microsomes
Experimental: as §3

[4] = Protein binding in microsomal incubations (HLM); assay type: in vitro ADME, human
Experimental: as §4

Aurora B = Aurora B (Homo sapiens, UniProt Q96GD4); assay: Aurora-B microfluidic kinase assay; details: biochemical; mean of two determinations or mean ±SD for n > 2
Aurora B, sequence (Q96GD4 whole entry): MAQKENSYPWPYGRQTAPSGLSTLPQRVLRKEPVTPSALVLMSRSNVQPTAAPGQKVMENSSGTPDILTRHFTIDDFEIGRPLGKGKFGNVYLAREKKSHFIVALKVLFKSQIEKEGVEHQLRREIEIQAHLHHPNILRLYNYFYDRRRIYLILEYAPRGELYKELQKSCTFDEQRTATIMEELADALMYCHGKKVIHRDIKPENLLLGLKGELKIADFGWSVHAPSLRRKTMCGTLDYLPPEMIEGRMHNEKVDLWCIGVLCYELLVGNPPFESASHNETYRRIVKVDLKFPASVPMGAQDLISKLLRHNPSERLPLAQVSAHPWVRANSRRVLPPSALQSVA
Text: as §1, §2

| IC50 (Aurora A) [nM] | MLM % met/30 min [1] | percentage unbound in MLM [2] [%] | HLM % met/30 min [3] | percentage unbound in HLM [4] [%] | IC50 (Aurora B) [nM] | fold more potent on Aurora-A relative to Aurora-B (Aurora A) [fold] | SMILES |
| --- | --- | --- | --- | --- | --- | --- | --- |
| > 10000 | 31% | 0.16 | 20% | 0.10 | > 10000 |  | Cc1nn(C)cc1-c1nc2c(-c3cnn(-c4ccc(F)cc4)c3)c(Cl)cnc2[nH]1 [Compound 7e] |
| 36 | 72/72% |  | 72% and 72/72% |  | 296 | 8 | Cc1nn(C)cc1-c1nc2c(-c3cnn(Cc4cccc(C(=O)N(C)C)c4)c3)c(Cl)cnc2[nH]1 [Compound 14a] |
| 46 | 97% |  | 87% |  | 235 | 5 | Cc1nn(C)cc1-c1nc2c(-c3cnn(Cc4cccc(C(=O)N5CCN(C)CC5)c4)c3)c(Cl)cnc2[nH]1 [Compound 14b] |
| 126 | 98% |  | 82% |  | 354 |  | Cc1nn(C)cc1-c1nc2c(-c3cnn(Cc4ccccc4C(=O)N4CCN(C)CC4)c3)c(Cl)cnc2[nH]1 [Compound 14c] |
